The values below come from paper PMC11960431, “A novel function of short cationic peptide FP-CATH9 without antimicrobial activity reverses resistance to minocycline in common multidrug-resistant gram-negative bacteria” (Microbiology Spectrum, 2025).

Ends that are not written are not given here.

The test system of data set [1] is Clinical K. pneumoniae 3 (minocycline resistance). As to the kind of experiment: Disk diffusion plate assay, inhibition zone (peptide alone and antibiotic sensitization). The following applies: for Inhibition zone (mm) Contains FP-CATH9 / Inhibition zone (mm) Normal saline control: K. pneumoniae strain 3, mean ± SD, repeated three times; for Inhibition zone (mm) Contains FP-CATH9: antibiotic disk + FP-CATH9 (20 µg peptide in 10 µL); for Inhibition zone (mm) Normal saline control: antibiotic disk + normal saline, without FP-CATH9. A general note: A growth-free zone around the sample is the usual read-out of agar diffusion tests.

For the next data set, the system named is E. coli ATCC BW25113. As to the kind of experiment: MIC, broth microdilution (CLSI). It is filed as cell-based, Escherichia coli. The following applies: peptide alone, repeated three times. In general terms: Dilution methods test growth across graded concentrations, often in twofold steps.
The subject of data set [2] is P. aeruginosa ATCC 27853. As to the kind of experiment: MIC, broth microdilution (CLSI). The conditions noted are these: peptide alone, repeated three times. It is filed as cell-based, Pseudomonas aeruginosa.
The test system of data set [3] is K. pneumoniae ATCC 700603. The class given is cell-based, Klebsiella pneumoniae. The following applies: peptide alone, repeated three times.
Another data set relates to A. baumannii ATCC 19606. The data set can be described thus: MIC, broth microdilution (CLSI). The class given is cell-based, Acinetobacter baumannii. The conditions noted are these: peptide alone, repeated three times.
Another data set has as its system S. aureus ATCC 29213. The data set can be described thus: MIC, broth microdilution (CLSI). The conditions noted are these: peptide alone, repeated three times. It is filed as cell-based.
Data set [4] relates to Clinical A. baumannii 3 (minocycline resistance). The following applies: peptide alone, repeated three times. The method, then:
(§1) The antimicrobial activity of FP-CATH9 was determined through broth microdilution and plate assays in an antibiotic disk diffusion test.
(§2) The MIC of FP-CATH9 was determined using broth microdilution as recommended by Clinical and Laboratory Standards Institute (CLSI). Sensitivity to other antibiotics was assessed using the VITEK 2 Compact System (bioMerieux, France). Antimicrobial activity was determined using the Clinical and Laboratory Standards Institute (CLSI) Standard Reference method([17]).

Data set [5] relates to Clinical K. pneumoniae 3 (minocycline resistance). The conditions noted are these: peptide alone, repeated three times. How it is done: as §1, §2
Data set [6] relates to Clinical P. aeruginosa 1 (minocycline resistance). The conditions noted are these: peptide alone, repeated three times. The method, then:
as §1, §2

Data set [7] deals with Clinical P. aeruginosa 2 (minocycline resistance). The following applies: peptide alone, repeated three times. How it is done: as §1, §2
Data set [8] relates to Clinical P. aeruginosa 3 (minocycline resistance). The conditions noted are these: peptide alone, repeated three times. The method, then:
as §1, §2

Data set [9] concerns Clinical K. pneumoniae 1 (minocycline sensitive). As to the kind of experiment: MIC, broth microdilution (CLSI). It is filed as cell-based, Klebsiella pneumoniae. The conditions noted are these: peptide alone, repeated three times.
Data set [10] has as its system Clinical K. pneumoniae 2 (minocycline mediated). It is filed as cell-based, Klebsiella pneumoniae. The conditions noted are these: peptide alone, repeated three times.
Data set [11] deals with Clinical A. baumannii 1 (minocycline sensitive). As to the kind of experiment: MIC, broth microdilution (CLSI). It is filed as cell-based, Acinetobacter baumannii. The conditions noted are these: peptide alone, repeated three times.
Data set [12] relates to Clinical A. baumannii 2 (minocycline mediated). It is filed as cell-based, Acinetobacter baumannii. The following applies: peptide alone, repeated three times.
The test system of another data set is bovine erythrocytes. As to the kind of experiment: Hemolytic activity. The conditions noted are these: 5% bovine erythrocyte suspension, 128 µg/mL, 37°C, 1 h, absorbance 540 nm; 0.2% Triton X-100 positive control; mean ± SD. It is filed as cell-based. How it is done: Refer to the method of a reference ([21]). Determination of hemolytic activity. Fresh bovine blood cells (Guangzhou Hongquan Biotechnology Co., Ltd., No: HQ80074) were washed with normal saline three times and configured into 5% erythrocyte suspension. […] The supernatant was absorbed, and the absorption value was measured at a 540 nm wavelength. Normal saline was used as negative control, and 0.2% Triton X-100 was used as positive control. The percentage of hemolysis rate is calculated by the following formula: hemolysis rate % = A(sample) − A(negative control) / A(positive control) × 100%.

The subject of data set [13] is P. aeruginosa ATCC 27853. As to the kind of experiment: Disk diffusion plate assay, inhibition zone. The class given is cell-based, Pseudomonas aeruginosa. The conditions noted are these: MH paper + 10 µL normal saline, Fig 3A. How it is done: as §1, §2
(§3) The concentration of the FP-CATH9 mother solution was 2 mg/mL. The control conditions included MH paper + normal saline (10 µL) , experimental conditions included MH paper + FP-CATH9 (10 µL). Total 10 µL was added to MH paper to detect the dose dependence of sensitization.

Data set [14] concerns Clinical A. baumannii 3 (minocycline resistance). The data set can be described thus: Disk diffusion plate assay, inhibition zone. The class given is cell-based, Acinetobacter baumannii. The following applies: Multidrug-resistant A. baumannii strain 3; MH paper + 10 µL normal saline; Fig 3B. The method, then: as §1, §2, §3
The test system of data set [15] is Multidrug-resistant K. pneumoniae strain 3. The data set can be described thus: Time-killing curve. It is filed as cell-based, Klebsiella pneumoniae. The following applies: K. pneumoniae strain 3, 10^6 CFU/mL, 37°C, each agent 16 µg/mL. How it is done:
After 4 h of treatment with minocycline only (16 µg/mL), drug-resistant bacterial cultures were again observed to be growing rapidly.
Refer to the method of a reference ([19]). The above clinical K. pneumoniae strain 3 was taken in logarithmic stage (oscillatory culture at 37°C) and diluted with fresh MH liquid medium into 10^6 CFU/mL bacterial suspension. […] The bacterial solution added with the drug was placed in an incubator at 37°C for shock culture, and the 50 µL bacterial solution was diluted 1,000 times at 0, 2, 4, 6, 8, 10, and 12 h, respectively. Then, the 50 µL diluted bacteria solution was coated on MH solid medium, and the bacterial colonies were counted after overnight culture at 37°C. Saline was used as a negative control.

The subject of data set [16] is minocycline-resistant K. pneumoniae strain 3. The data set can be described thus: G. mellonella infection assay. The class given is in vivo, Galleria mellonella. The following applies: G. mellonella larvae, n = 10, infected with K. pneumoniae strain 3; 16 µg/mL; 7 days. How it is done: The G. mellonella model of bacterial infection was used to evaluate the combined protective effect of FP-CATH9 and minocycline. In each G. mellonella group (n = 10), G. mellonella survival was recorded every 24 h after infection. […] After the infected group was injectioned with minocycline -resistant K. pneumoniae strain 3 , the larvae all died within 1 day.
Refer to the method of a reference ([22]). Monoclonal K. pneumoniae strain 3 was selected and cultivated in 5 mL LB broth using a constant temperature oscillator at 200 rpm/min and 37°C for 12 h. After 12 h, the culture was expanded and diluted at the ratio of 1:100. The logarithmic bacterial solution was taken, washed with normal saline, and then suspended in 1 mL system with a concentration of 1.5 × 10^8 CFU/mL. The experiment was divided into 5 groups: the minocycline-resistant K. pneumoniae strain 3 group (treated group), the group injected with FP-CATH9 (16 µg/mL) alone, the group with minocycline (16 µg/mL) alone, the group with FP-CATH9 (16 µg/mL) + minocycline (16 µg/mL), and the NS group (saline group). […]

Data set [17] deals with Multidrug-resistant K. pneumoniae. The data set can be described thus: Checkerboard assay, FP-CATH9 and minocycline. The conditions noted are these: 18 h.

On to `C[C@@H](O)[C@H]1C(=O)N2C(C(=O)O)=C(S[C@@H]3CN[C@H](C(=O)N(C)C)C3)[C@H](C)[C@H]12` [MEM, meropenem], for which, in data set [1], the “Inhibition zone (mm) Contains FP-CATH9” value is given as 8.1 ± 0.08 mm and the “Inhibition zone (mm) Normal saline control” value is reported as 8.16 ± 0.12 mm.

`Cc1cc(NS(=O)(=O)c2ccc(N)cc2)no1` [SXT, sulfamethoxazole]: in data set [1], the “Inhibition zone (mm) Contains FP-CATH9” value stood at 10.13 ± 0.12 mm and the “Inhibition zone (mm) Normal saline control” value turned out to be 10.23 ± 0.17 mm.

Take `CO/N=C(\C(=O)N[C@@H]1C(=O)N2C(C(=O)O)=C(CSc3nc(=O)c(=O)[nH]n3C)CS[C@H]12)c1csc(N)n1` [CRO, ceftriaxone]: in data set [1], the “Inhibition zone (mm) Contains FP-CATH9” value is 6 mm and the “Inhibition zone (mm) Normal saline control” value is 6 mm.

With `C[C@@H](O)[C@H]1C(=O)N2C(C(=O)O)=C(SCCN=CN)C[C@H]12` [IPM, imipenem], in data set [1], the “Inhibition zone (mm) Contains FP-CATH9” value was found to be 9.03 ± 0.05 mm and the “Inhibition zone (mm) Normal saline control” value is 9.06 ± 0.04 mm.

Take KRFKKFWKK [FP-CATH9]: the “FP-CATH9 MIC” value (in the data set on E. coli ATCC BW25113; in the data set on P. aeruginosa ATCC 27853 [2]; in data set [3]; with A. baumannii ATCC 19606; in the data set with S. aureus ATCC 29213; in data set [4]) was >512 µg/mL throughout. For the same molecule, the “FP-CATH9 MIC” value in data set [5], in data set [6], in [7], in [8], in data set [9] and in [10] was >512 µg/mL in each case. The “FP-CATH9 MIC” value in data set [11] and in data set [12] was >512 µg/mL each time. The hemolysis in the data set on bovine erythrocytes is 3.97% ± 0.42%.

As to `NCC[C@H](O)C(=O)N[C@@H]1C[C@H](N)[C@@H](O[C@H]2O[C@H](CN)[C@@H](O)[C@H](O)[C@H]2O)[C@H](O)[C@H]1O[C@H]1O[C@H](CO)[C@@H](O)[C@H](N)[C@H]1O` [AK, amikacin], in data set [1], the “Inhibition zone (mm) Contains FP-CATH9” value was 6 mm and the “Inhibition zone (mm) Normal saline control” value was determined as 6 mm.

In the case of `CC(C)(O/N=C(\C(=O)N[C@@H]1C(=O)N2C(C(=O)[O-])=C(C[n+]3ccccc3)CS[C@H]12)c1csc(N)n1)C(=O)O` [CAZ, ceftazidime], in data set [1], the “Inhibition zone (mm) Contains FP-CATH9” value is reported as 6 mm and the “Inhibition zone (mm) Normal saline control” value is on record as 6 mm.

Consider `CC1(C)S[C@@H]2[C@H](NC(=O)[C@H](N)c3ccccc3)C(=O)N2[C@H]1C(=O)O` [AMP, ampicillin], for which, in [1], the “Inhibition zone (mm) Contains FP-CATH9” value is 6 mm and the “Inhibition zone (mm) Normal saline control” value was 6 mm.

Take `CNC(C)C1CCC(N)C(OC2C(N)CC(N)C(OC3OCC(C)(O)C(NC)C3O)C2O)O1` (centres unmarked) [GN, gentamicin]: in data set [1], the “Inhibition zone (mm) Contains FP-CATH9” value came out at 6 mm and the “Inhibition zone (mm) Normal saline control” value is recorded as 6 mm.

The MIC is the least concentration at which growth counts as inhibited. Turning to `CN(C)c1ccc(O)c2c1C[C@H]1C[C@H]3[C@H](N(C)C)C(O)=C(C(N)=O)C(=O)[C@@]3(O)C(O)=C1C2=O` [minocycline], the “Inhibition zone, control” value was 6 mm in the data set with P. aeruginosa ATCC 27853 [13]; 11 mm in data set [14]; 6 mm in [1] (Multidrug-resistant K. pneumoniae strain 3, MH paper + 10 µL normal saline, Fig 3C). Besides, the “effect on bacterial growth at 10 h (time-killing curve)” value in [15] is given as “no inhibitory effect”. The protective effect result in [16] is listed as “little protective effect”. The minimal inhibitory concentration (MIC) in [17] (Klebsiella pneumoniae, read-out: MIC of minocycline alone) was 128 µg/mL. Also, the “MIC of minocycline combined with FP-CATH9” value in data set [17] (multidrug-resistant K. pneumoniae, 5 × 10^5 CFU/mL, 37°C) stood at 2 µg/mL.
